This note sets out measurements from patent EP0393604B1, “6,11-Dihydro-5H-pyrido(2,3-b)(1,5,)benzodiazepin-5-ones and thiones and their use in the prevention or treatment of AIDS” (priority 1989, dated 1990).

Data set [1] is described as follows: MTT Assay for Cellular Cytotoxicity. It is filed as cell-based, human. To be noted: human, H9 cells, five days incubation, read-out: Cytotoxity Assay (EC50). The method, then: (§1) In order to roughly assess the cytotoxicity of the compounds of formula 1, several such compounds were tested in the MTT Cellular Cytotoxicity Assay described below.
(§2) The MTT [3-(4,5-dimethylthiazol-2yl)-2,5-diphenyl tetrazolium bromide) assay is based on cleavage of tetrazolium bromide by metabolically active cells, resulting in a highly quantitative blue color. This assay has been previously described (1) but has been optimized for the purposes of the testing reported herein.
(§3) Cells (100µl) are plated in microtest plate wells at a concentration of 10^5 cells per ml in the presence of varying concentrations of inhibitor. The cells are incubated at 37°C in a humidified CO2 incubator. […] After 4 hours additional incubation at 37°C, 60µl of Triton-X is added to each well and thoroughly mixed to aid the solubilization of the crystals. Absolute ethanol (5µl) is added to each well and the resulting mixture is incubated for 30 minutes at 60°C and immediately read on a plate reader (Dynatech) at a wavelength of 570nm.
(§4) Data from this assay are used to generate a nonlinear regression analysis, which yields the EC50.

A further data set deals with T1, HIV-1 RT (Human immunodeficiency virus type 1 group M subtype B, UniProt P03367).
T1 construct: Reverse transcriptase enzyme from the LAV strain of Human Immunodeficiency Virus (HIV-1) (1) was isolated from the bacterial strain JM109; made in house; host or cells: E. coli JM109, clone pBRTprt1+ in vector pIBI21, lac promoter, IPTG induction
Kind of data set: Reverse Transcriptase (RT) Assay: inhibition of RNA-dependent DNA polymerase activity. In kind it is biochemical. The note with it: for inhibition at 10 µg/mL: read-out: RT Inhibition % @ 10µg/ml. An excerpt: Utilizing the Reverse Transcriptase (RT) Assay descibed below, compounds can be tested for their ability to inhibit the RNA-dependent DNA polymerase activity of HIV-1 RT. Certain specific compounds of formula I described in the Examples which appear below, were so tested. The above-described compounds of formula IA were also so tested.
Among the enzymes for which Human Immunodeficiency Virus (HIV-1) encodes is a reverse transcriptase (1), so-named because it transcribes a DNA copy from an RNA template. This activity can be quantitatively measured in a cell-free enzyme assay which has been previously described (2), and is based upon the observation that reverse transcriptase is able to use a synthetic template [poly r(C) primed with oligo d(G)] to transcribe a radio-labelled, acid-precipitable DNA strand utilizing ^3H-dGTP as a substrate.
Reverse transcriptase enzyme from the LAV strain of Human Immunodeficiency Virus (HIV-1) (1) was isolated from the bacterial strain JM109 (3) expressing the DNA clone pBRTprt1+ (2) which is under the control of the lac promoter in the expression vector pIBI21 (4). An overnight culture grown in 2XYT medium (37°C, 225 rpm) (5) supplemented with 100 µg/ml ampicillin for positive selection is inoculated at a 1:40 dilution into M9 medium supplemented with 10µg/ml thiamine, 0.5% casamino acids, and 50 µg/ml ampicillin (5). The culture is incubated (37°C, 225 rpm) until it reaches an OD540 of 0.3-0.4. At that time the repressor inhibitor IPTG (isopropyl b-D-thiogalactopyranoside) is added to 0.5mM and the mixture is incubated for 2 additional hours. Bacteria are pelleted, resuspended in a 50mM Tris, 0.6mM EDTA, 0.375M NaCl buffer and digested by the addition of lysozyme (1mg/ml) for 30 minutes on ice. The cells are lysed by the addition of 0.2% NP-40 and brought to 1M NaCl.
After removal of the insoluble debris by centrifugation, the protein is precipitated by the addition of 3 volumes of water-saturated ammonium sulfate. The enzyme is pelleted, resuspended in RT buffer (50mM Tris pH 7.5. 1mM EDTA, 5mM DTT, 0.1% NP-40, 0.1M NaCl, and 50% glycerol), and stored at -70°C for further use.
The 2X concentrated stock reaction mixture is aliquoted and stored at -20°C. The mixture is stable and thawed for use in each assay. This enzyme assay has been adapted to a 96 well microtiter plate system, and has been previously described (6). Tris buffer (50 mM, pH 7.4), vehicle (solvent diluted to match the compound dilution), or compounds in vehicle are dispensed into 96-well microtiter plates (10µl/well: 3 wells/compound). The HIV-1 RT enzyme is thawed and diluted in 50mM Tris pH 7.4 so that fifteen µl of diluted enzyme contain 0.001 Unit (one unit is that amount of enzyme to transform 1 micromole of substrate per minute at 25°C) and 15µl are dispensed per well. Twenty µl of 0.12 - 0.5M EDTA are added to the first three wells of the microtiter plate. EDTA chelates the Mg^++ present and prevents reverse transcription. This group serves as background polymerization which is subtracted from all other groups. Twenty-five ul of the 2X reaction mixture are added to all wells and the assay is allowed to incubate at room temperature for 60 minutes. The assay is terminated by precipitating the DNA in each well with 50µl of trichloracetic acid (TCA) (10% w/v) in sodium pyrophosphate (1% w/v). The microtiter plate is incubated for 15 minutes at 4°C and the precipitate is fixed onto #30 glass fiber paper (Schleicher & Schuell) using a Skatron semi-automatic harvester. The filters are then washed with additional TCA (5%) containing sodium pyrophosphate (1%), rinsed with aqueous ethanol (70%), dried, and transferred to scintillation vials (6). Each vial receives 2 mls of scintillation cocktail and is counted in a Beckman beta counter. […]

For data set [2], the system named is HTLV-IIIB strain of HIV-1. Kind of data set: Human T-Cell Culture Assay (syncytia formation in c8166 cells). The note with it: Human immunodeficiency virus 1, IIIB, 96 h, syncytia four days after virus challenge. In kind it is cell-based. The method, then:
In order to confirm that compounds which are active in the RT Assay also have the ability to inhibit HIV-1 replication in a living system, several compounds of formula I were also tested in the Human T-Cell Culture Assay described below.
Formation of syncytia is a feature of in vitro cultures of CD4+ T-cells infected with HIV-1. In this assay, T-cells are treated with a putative replication inhibiting compound and then infected with HIV-1. After incubation the culture is checked for the formation of syncytia. The absence or reduction is the number of syncytia is used as a measure of the test compound's ability to inhibit HIV replication.
The target cells, designated c8166, are a subclone of human lymphoma cells of T-cell origin and are established at an initial density of 5x10^4 per 100 ul in RPMI 1640 (+ 10% fetal bovine serum) culture medium in 96 well flat bottom plates. A selected amount of test compound, dissolved in DMSO is included. After 24 hours, 50-100 TCID50's (the dose that results in induced effect in 50% of test cultures) of the HTLV-IIIB strain of HIV-1 (2) are innoculated into each culture. Control cultures receive compound or virus only. Four days after virus challenge, cultures are visually examined for the frequency and distribution of virus-induced giant cell syncytia. The percent inhibition by the test compound is determined by comparison with control values. Confirmation of the presence or absence of virus replication is accomplished by harvesting the cell free culture fluids from all experimental groups to determine the present or absence of infectious progeny through the induction of syncytia formation in secondary human T-cell cultures after 3 days.

Another data set concerns H9 cell line. Kind of data set: MTT Assay for Cellular Cytotoxicity. It is filed as cell-based, human. The note with it: H9 cells, five days incubation, unit inferred, 7200 min, read-out: Cytotoxity Assay (EC50). On the procedure: as §1, §2, §3, §4
Where [3] appears, read: 10µg/ml, Table I, compounds of formula I.

Like-named read-outs stand apart in the source and are kept apart here.

Regarding `CCN1c2ccccc2N(C)C(=O)c2cccnc21` [Example 2, 6,11-Dihydro-11-ethyl-6-methyl-5H-pyrido[2,3-b][1,5]benzodiazepin-5-one], the CC50 at 120 h in data set [1] came to 80 µM. Also, on HIV-1 RT (setting [3]), the inhibition at 10 µg/mL was 97%. The same compound showed an inhibition at 4 µM in data set [2] (@ 4µM) of 100%.

As for `CN1C(=O)c2cccnc2N(C)c2cc(C(F)(F)F)ccc21` [Example 4, 6,11-Dihydro-6,11-dimethyl-9-(trifluoromethyl)-5H-pyrido[2,3-b][1,5]benzodiazepin-5-one], in data set [1], the CC50 at 120 h was found to be 49 µM. Besides, the inhibition at 10 µg/mL at HIV-1 RT (setting [3]) amounted to 79%.

`CC(C)N1c2ccccc2N(C)C(=O)c2cccnc21` [Example 5, 6,11-Dihydro-6-methyl-11-methylethyl-5H-pyrido[2,3-b][1,5]benzodiazepin-5-one]: the CC50 at 120 h in data set [1] worked out at 50 µM. For the same compound, the inhibition at 10 µg/mL at HIV-1 RT (setting [3]) was 94%. The compound further yielded an inhibition at 19 µM in data set [2] (@19µM) of 100%.

With `CN1C(=O)c2cccnc2N(C)c2ccc(Cl)cc21` [Example 8, 8-Chloro-6,11-dihydro-6,11-dimethyl-5H-pyrido[2,3-b][1,5]benzodiazepin-5-one], the CC50 at 120 h in data set [1] came out at 37 µM. In addition, the inhibition at 10 µg/mL on HIV-1 RT (setting [3]) is 55%.

Regarding `Cc1cc2c(cc1C)N(C)c1ncccc1C(=O)N2C` [Example 9, 6,11-Dihydro-6,8,9,11-tetramethyl-5H-pyrido[2,3-b][1,5]-benzodiazepin-5-one], the CC50 at 120 h in data set [1] is 4 µM. At HIV-1 RT (setting [3]), the inhibition at 10 µg/mL was 92%.

For `Cc1ccc2c(n1)N(C)c1cc(C)c(C)cc1N(C)C2=O` [Example 15, 6,11-Dihydro-2,6,8,9,11-pentamethyl-5H-pyrido[2,3-b][1,5]benzodiazepin-5-one], the CC50 at 120 h in data set [1] (unit inferred) amounted to 18 µM. The inhibition at 10 µg/mL on HIV-1 RT (setting [3]) came to 39%.

As for `CC(=O)N1c2cc(C)c(C)cc2N(C)C(=O)c2cccnc21` [Example 19, 11-Acetyl-6,11-dihydro-6,8,9-trimethyl-5H-pyrido[2,3-b][1,5]benzodiazepin-5-one], the CC50 at 120 h in data set [1] (unit inferred) stood at 85 µM. The inhibition at 10 µg/mL at HIV-1 RT (setting [3]) was determined as 90%.

Consider `CCN1c2ccccc2N(C)C(=S)c2cccnc21` [Example 22, 6,11-Dihydro-11-ethyl-6-methyl-5H-pyrido[2,3-b][1,5]benzodiazepin-5-thione], for which the inhibition at 10 µg/mL on HIV-1 RT stood at 100%. Besides, the inhibition at 3 µM in data set [2] (@3µM) is 100%.

Turning to `CCN1C(=O)c2cccnc2Nc2cc(C)ccc21` [Formula IA h, 6-ethyl-9-methyl-6,11-dihydro-5H-pyrido[2,3-b][1,5]benzodiazepin-5-one], the inhibition at 10 µg/mL on HIV-1 RT (10µg/ml, Table II, known compounds of formula IA) turned out to be 78%.

With “Mixture of 6,11-Dihydro-2,4,6,8,11-and 6,11-dihydro-2,4,6,9,11- pentamethyl-5H-pyrido[2,3-b][1,5]benzodiazepin-5-one [Example 17]”, the CC50 in the data set with H9 cell line is 9 µM. Moreover, the “RT Inhibition % @ 10µg/ml” value on HIV-1 RT (setting [3]) is recorded as 49%.
